Measured values: patent US9121026B2 (priority 2004, dated 2015)

Assays:
Assay type in all cases: cell-based, Saccharomyces cerevisiae
[1] = test system: S. cerevisiae strain RE700A; assay: Growth inhibition of RE700A by 2-DG in liquid maltose medium (OD600, integral under growth curve)
Procedure: FIG. 1: Growth inhibition of S. cerevisiae strain RE700A at increasing 2-deoxy-glucose (2-DG) concentrations after incubation at 280 C for 20 h. RE700A was incubated for 20 h at 28° C. with maltose (2% (w/v)) as the sole carbon source and 2-DG at the concentrations indicated. The optical density was measured at 600 nm every 15 minutes and the integral under the growth curve was calculated. Inhibition of growth is shown in percent of growth of RE700A in the absence of 2-DG. The strain grew well in the presence of up to 0.5% (w/v) 2-DG.
Strain growth: The growth of the strains in liquid medium was determined by measuring the optical density at 600 nm. To obtain growth curves, measurements were performed every 15 min. Alternatively, start and endpoint (after 12-16 h) measurements were carried out.
The screening system used Saccharomyces cerevisiae RE700A, a yeast strain deprived of the seven most important glucose transporters (HXT1-7) (Reifenberger, E. et al., Molecular Microbiology 16:157-167 (1995)). The strain is not able to grow on glucose as the sole carbon source. It grows on maltose (2% (w/v)) as the sole carbon source. In addition, the strain grows well on maltose also in the presence of up to 0.5% (w/v) 2-deoxy-glucose (2-DG), a toxic glucose analogue, in the medium (FIG. 1). Growth is inhibited by 50% at a 2-DG concentration in liquid media of ˜1% (w/v) (FIG. 1).

[2] = test system: RE700A tok1::PPDR5long-HXT7; assay: Growth of RE700A tok1::PPDR5long-HXT7 in the presence of 2-DG; conditions: RE700A tok1::PPDR5long-HXT7, liquid media, 20 h 28° C.
Procedure: (§1) (B) Relative growth of RE700A tok1::PPDR5long-HXT7, RE700A Δpdr1 tok1::PPDR5long-HXT7, RE700A Δpdr3 tok1::PPDR5long-HXT7 and RE700A Δpdr1,3 tok1::PPDR5long-HXT7 in the presence of 2-DG. Cells were incubated for 20 h at 28° C. with 2-DG at different concentrations. […] The standard error of the mean (n=5) is indicated.

[3] = test system: RE700A Δpdr1,3 tok1::PPDR5long-HXT7; assay: Growth of RE700A Δpdr1,3 tok1::PPDR5long-HXT7 in the presence of 2-DG
Procedure: as §1

[4] = test system: RE700A i PCDR1-HXT7 (IT[CDR1]); assay: Growth inhibition of IT[CDR1] by 2-DG; conditions: 20 h 28° C., maltose, regarding growth in the absence of 2-DG
Procedure: FIG. 7: Growth inhibition of RE700A and IT[CDR1] by 2-DG. RE700A and IT[CDR1] were incubated for 20 h at 28° C. with maltose (2% (w/v)) as the sole carbon source and increasing 2-DG concentrations as indicated. The optical density was measured at 600 nm every 15 minutes and the integral under the growth curve was calculated. Inhibition of growth is shown in percent regarding growth in the absence of 2-DG. Growth of IT[CDR1] was inhibited by 45% at a 2-DG concentration of 0.01% (w/v), by 91% at a 2-DG concentration of 0.03% (w/v), by 92% at a 2-DG concentration of 0.05% (w/v), by 92% at a 2-DG concentration of 0.1% (w/v), by 94% at a 2-DG concentration of 1% (w/v), by 95% at a 2-DG concentration of 2% (w/v) and by 95% at a 2-DG concentration of 3% (w/v).
(3) Integrated screening system for inhibitors of PCDR1: S. cerevisiae strain RE700A was genetically modified as described in Example 1 and 2 to yield strain IT[CDR1], chromosomally expressing HXT7 under the control of the promoter of CDR1 (PCDR1) (for the complete genotype see Table 1). The inhibition of growth of IT[CDR1] by 2-DG was tested. The growth of this strain was inhibited by more than 90% at a 2-DG concentration of 0.03% (w/v) (FIG. 7)

[5] = test system: RE700A i PCDR2-HXT7 (IT[CDR2]); assay: Growth inhibition of IT[CDR2] by 2-DG; conditions: 20 h 28° C., maltose, regarding growth in the absence of 2-DG
Procedure: FIG. 8: Growth inhibition of RE700A and IT[CDR2] by 2-DG. RE700A and IT[CDR2] were incubated for 20 h at 28° C. with maltose (2% (w/v)) as the sole carbon source and increasing 2-DG concentrations as indicated. The optical density was measured at 600 nm every 15 minutes and the integral under the growth curve was calculated. Inhibition of growth is shown in percent regarding growth in the absence of 2-DG. Growth of IT[CDR2] was inhibited by 30% at a 2-DG concentration of 0.1% (w/v), by 79% at a 2-DG concentration of 1% (w/v), by 89% at a 2-DG concentration of 2% (w/v), by 91% at a 2-DG concentration of 3% (w/v).
(4) Integrated screening system for inhibitors of PCDR2: S. cerevisiae strain RE700A was genetically modified as described in Examples 1 and 2 to yield strain IT[CDR2], chromosomally expressing HXT7 under the control of the promoter of CDR2 (PCDR2) (for the complete genotype see Table 1). The inhibition of growth of IT[CDR2] by 2-DG was tested. The growth of this strain was inhibited by 50% at a 2-DG concentration of 1% (w/v) and by 80% at a 2-DG concentration of 2% (w/v) (FIG. 8).

SMILES: O=CC[C@@H](O)[C@H](O)[C@H](O)CO [2-DG, 2-deoxy-glucose]
- 2-DG concentration at which growth is inhibited by 50% ([1]; liquid media, maltose): ~1 % (w/v)
- 2-DG concentration up to which the strain grows well ([1]; maltose 2% (w/v) sole carbon source, 20 h, 28° C.): up to 0.5 % (w/v)
- 2-DG concentration for 50% growth inhibition [2]: 0,025 % (w/v)
- Sensitivity to 2-DG compared with the other PPDR5long-HXT7 strains ([3]; RE700A Δpdr1,3 tok1::PPDR5long-HXT7, 20 h 28° C., n=5): far less sensitive
- 2-DG concentration for 50% growth inhibition ([3]; RE700A Δpdr1,3 tok1::PPDR5long-HXT7, liquid media, 20 h 28° C.): 0.6 % (w/v)
- Increase of tolerance to 2-DG ([3]; RE700A Δpdr1,3 tok1::PPDR5long-HXT7 versus RE700A Δpdr1 tok1::PPDR5long-HXT7): ~10 fold
- Inhibition of growth ([4]; 0.01% (w/v) 2-DG): 45%
- Inhibition of growth ([4]; 0.05% (w/v) 2-DG): 92%
- Inhibition of growth ([4]; 0.1% (w/v) 2-DG): 92%
- Inhibition of growth ([4]; 1% (w/v) 2-DG): 94%
- Inhibition of growth ([4]; 2% (w/v) 2-DG): 95%
- Inhibition of growth ([4]; 3% (w/v) 2-DG): 95%
- Inhibition of growth ([5]; 0.1% (w/v) 2-DG): 30%
- Inhibition of growth ([5]; 3% (w/v) 2-DG): 91%
